Data published in the C3SDB collision cross section collection.

Conditions: instrument: DT, stepped-field

Structure (SMILES)	collision cross section (N2) ([M+2Na-H]+) [Å²]	collision cross section (N2) ([M+H]+) [Å²]	collision cross section (N2) ([M+Na]+) [Å²]	further results
CC/C=C\C/C=C\C/C=C\C/C=C\C/C=C\CCCCCC(=O)O[C@H](COC(=O)CCCCCCCCCCCCCCC)COP(=O)([O-])OCC[N+](C)(C)C [PC(38:05)]	–	–	–	collision cross section (N2) ([M+Cl]-): 297.1 Å²; collision cross section (N2) ([M+HCOO]-): 297.3 Å²
CCCCCCCCCC/C=C\CCCCCCCCCC(=O)O[C@H](COC(=O)CCCCCCCCCCCCCCC)COP(=O)(O)OC[C@H](N)C(=O)O [PS(38:01)]	295.38	289.63	–	–
CCCCCCCC/C=C\CCCCCCCC(=O)OC[C@H](COP(=O)(O)OCCN)OC(=O)CCCCCCC/C=C\CCCCCCCCC [PE(37:02)]	285.18	–	282.21	–
CCCCCCCCCCCCC=CC[C@@H](O)[C@H](CO)NC(=O)CC=CCCCCCCCCCCCCCCCCCCCCC [Cer(43:02)]	–	–	–	collision cross section (N2) ([M+H-H2O]+): 275.52 Å²
CCCCC/C=C\C=C/CCCCCCCCC(=O)O[C@H](COC(=O)CCCCCCCCCCCCCCCCC)COP(=O)([O-])OCC[N+](C)(C)C [PC(36:02)]	290.39	285.92	288.63	collision cross section (N2) ([M+Cl]-): 295.12 Å²; collision cross section (N2) ([M+HCOO]-): 295.45 Å²; collision cross section (N2) ([M+K]+): 289.17 Å²
CCCCC/C=C\C/C=C\CCCCCCCCCCCC(=O)O[C@H](COC(=O)CCCCCCC/C=C\CCCCCC)COP(=O)(O)OC[C@H](N)C(=O)O [PS(38:03)]	–	–	–	collision cross section (N2) ([M-H]-): 286.53 Å²
CCCCC/C=C\C/C=C\C/C=C\CCCCC(=O)OC[C@H](COP(=O)(O)OCCN)OC(=O)CCCCCCCCCCC/C=C\C/C=C\CCCCC [PE(40:05)]	289.53	–	289.38	collision cross section (N2) ([M-H]-): 280.89 Å²
CC/C=C\C/C=C\C/C=C\C/C=C\C/C=C\CCCCCC(=O)O[C@H](COC(=O)CCCCCCCCCCCCCCCCC)COP(=O)([O-])OCC[N+](C)(C)C [PC(40:05)]	–	–	295.77	–
CCCCC/C=C\C/C=C\CCCCCCCCCCCC(=O)O[C@H](COC(=O)CCCCCCCCCCCC)COP(=O)(O)O [PA(35:02)]	270	–	–	–
CCCCC/C=C\C/C=C\C/C=C\C/C=C\CCCC(=O)O[C@H](COC(=O)CCCCCCCCC/C=C\CCCCCCCC)COP(=O)(O)OC[C@H](N)C(=O)O [PS(40:05)]	297.17	289.6	293.82	collision cross section (N2) ([M+K]+): 294.22 Å²; collision cross section (N2) ([M-H]-): 290.27 Å²
CCCCCCCCCCCCC=CC[C@@H](O)[C@H](CO[C@@H]1O[C@H](CO)[C@@H](O)C(O)C1O)NC(=O)CC=CCC=CCC=CCCCCCCCCCCCCCCCCCCCCCC (some centres not stated) [GlcCer(50:04)]	–	–	–	collision cross section (N2) ([M+H-2H2O]+): 314.25 Å²
CC/C=C\C/C=C\C/C=C\C/C=C\C/C=C\C/C=C\CCC(=O)O[C@H](COC(=O)CCCCCCCCCCCCCCCCC)COP(=O)(O)O [PA(40:06)]	280.58	–	–	–
CCCCCCCCCCCCCCCCCCCCCC(=O)N[C@@H](CO[C@@H]1O[C@H](CO)[C@@H](O)C(O)C1O)[C@H](O)CCCCCCCCCCCCCCC (some centres not stated) [GlcCer(40:00)]	–	296.24	297.72	collision cross section (N2) ([M+Cl]-): 293.17 Å²; collision cross section (N2) ([M+HCOO]-): 298.07 Å²
CCCCC/C=C\C/C=C\C/C=C\C/C=C\CCCCCC(=O)O[C@H](COC(=O)CCCCCCCCCCCCCCCC)COP(=O)(O)OC[C@H](N)C(=O)O [PS(39:04)]	291.95	–	–	–
CCCCCCCC/C=C\CCCCCCCC(=O)OC[C@H](COP(=O)(O)OC[C@H](N)C(=O)O)OC(=O)CCCCCCC/C=C\CCCCCCCC [PS(36:02)]	285.97	280.92	–	collision cross section (N2) ([M+K]+): 285.23 Å²; collision cross section (N2) ([M-H]-): 281.82 Å²
CCCCCC/C=C\CCCCCCCC(=O)O[C@H](COCCCCCCCCCCCCCCCCCC)COP(=O)(O)OCCN [PE(o34:01)]	276.22	–	275.79	–
CCCCCCCCCCCCCCCCCCCCCCCC(=O)N[C@@H](CO)[C@H](O)CCCCCCCCCCCCCCC [Cer(42:00)]	–	280.05	281.85	–
CCCCC/C=C\C/C=C\CCCCCCCCCCCC(=O)O[C@H](COC(=O)CCCCCCCCCCCCCCC)COP(=O)(O)OCCN [PE(38:02)]	288.8	–	–	–
CCCCC/C=C\CCCCCCCC(=O)OC[C@H](COP(=O)(O)OCCN)OC(=O)CCCCCCCCCCCCCCCCCCCCC [PE(37:01)]	286.74	–	284.35	–
CCCCCCCCCCCCCCCCCCCCCCCC(=O)O[C@H](COC(=O)CCCCCCCCC)COP(=O)([O-])OCC[N+](C)(C)C [PC(34:00)]	286.12	–	–	–

Second part, led by results:

collision cross section (N2) ([M+2Na-H]+) [Å²]	collision cross section (N2) ([M+H]+) [Å²]	collision cross section (N2) ([M+Na]+) [Å²]	Structure (SMILES)	further results
306.07	299.5	302	CCCCC/C=C\C/C=C\CCCCCCCCCCCC(=O)O[C@H](COC(=O)CCCCCCCCCCCCCCCCCCC)COP(=O)(O)OC[C@H](N)C(=O)O [PS(42:02)]	–
301.25	–	–	CC/C=C\C/C=C\C/C=C\C/C=C\C/C=C\C/C=C\CCC(=O)OC[C@H](COP(=O)(O)OC[C@H](N)C(=O)O)OC(=O)CCCCCCCCCCC/C=C\C/C=C\CCCCC [PS(44:08)]	–
304.19	296.39	298.86	CCCCC/C=C\C/C=C\C/C=C\CCCCCCC(=O)OC[C@H](COP(=O)(O)OC[C@H](N)C(=O)O)OC(=O)CCCCCCCCC/C=C\CCCCCCCCCC [PS(42:04)]	–
300.15	295.24	297.67	CCCCC/C=C\C/C=C\C/C=C\CCCCCCC(=O)OC[C@H](COP(=O)(O)OC[C@H](N)C(=O)O)OC(=O)CCCCCCCCCCC/C=C\C/C=C\CCCCC [PS(42:05)]	–
–	298.03	–	CCCCC/C=C\C/C=C\CCCCCCCCCCCC(=O)O[C@H](COC(=O)CCCCCCCCC/C=C\CCCCCCCC)COP(=O)(O)OC[C@H](N)C(=O)O [PS(42:03)]	–
301.12	302.29	–	CCCCCCCCCCCCCCCCCCCCCCC(=O)N[C@@H](COP(=O)([O-])OCC[N+](C)(C)C)[C@H](O)CCCCCCCCCCCCCCC [SM(41:00)]	–
–	306.91	304.16	CCCCCCCCCCCCC=CC[C@@H](O)[C@H](COP(=O)([O-])OCC[N+](C)(C)C)NC(=O)CCCCCCCCCCCCCCCCCCCCCCCC [SM(43:01)]	–
–	284.15	280.32	CCCCCCCCCCCCC=CC[C@@H](O)[C@H](COP(=O)([O-])OCC[N+](C)(C)C)NC(=O)CC=CCCCCCCCCCCCCCC [SM(36:02)]	collision cross section (N2) ([M+HCOO]-): 289.73 Å²
284.82	–	–	CC/C=C\C/C=C\C/C=C\C/C=C\C/C=C\C/C=C\CCC(=O)O[C@H](COC(=O)CCCCCCC/C=C\C/C=C\C/C=C\CC)COP(=O)(O)OC[C@H](N)C(=O)O [PS(40:09)]	–
